Legend:
[1] = test system: TPA-induced ear edema and acanthosis in Balb/c mice; test: Mouse TPA-induced ear-swelling model; assay type: in vivo; settings: topical, 240 h, 1% w/v solution, 20 μL applied to ear once a day from day 0 to day 9, female Balb/c mice, read-out: Inhibition rate of change in ear thickness on day 10
Outline: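 Female Balb/c mice, 7 weeks old; 20 ng/mL TPA in 5% DMSO/acetone applied to outer ear on days 0, 2, 4, 7, 9. Test compound at 1% w/v topically once daily days 0-9, vehicle control. Inhibition rate from day 10 minus day 0 ear-thickness change versus control.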

[2] = test system: normal human neonatal foreskin epidermal keratinocytes (NHEK-F); test: Cell proliferation inhibition test; assay type: cell-based; settings: Keratinocyte, 72 h, NHEK-F cells, three days incubation, ATPlite or CellTiterGlo, read-out: IC50 (concentration of the compound at which the cell count is reduced by 50%)
Outline: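 NHEK-F keratinocytes, 2×10^3 per well in Humedia-EG2, plated overnight, then exposed to compound for three days. Cell count by ATPlite or CellTiterGlo luminescence; inhibition = 100 − (treated/untreated count)×100, IC50 as 50% reduction concentration.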

[3] = test system: TNFα production in LPS-stimulated Raw264.7 cells; test: TNFα production inhibition test; assay type: cell-based; settings: Mus musculus, test compound 1 μmol/L, LPS 1 μg/mL, 16 hours, ELISA, read-out: Inhibition rate of TNFα production
Method: 7×10^4 mouse macrophage-derived cell line Raw264.7 cells were suspended in 100 μL of RPMI1640 medium containing 10% fetal bovine serum, plated in a 96-well plate and incubated overnight. The culture supernatant was removed and the test compound diluted in RPMI1640 medium containing 1% fetal bovine serum (final concentration: 1 μmol/L) was added. One hour after the addition, LPS (B4:0111) (Sigma-Aldrich, L2630) was added to a final concentration of 1 μg/mL. 16 hours after the stimulation, the culture supernatant was collected and the amount of TNFα produced in the culture supernatant was determined using ELISA kit (R&D Systems, MTA00B).
The inhibition rate was calculated from the following formula. Inhibition rate (%)=100−(amount of TNFα produced in the presence of test compound/amount of TNFα produced in the absence of test compound)×100

With `O=C(O)c1cc(C2CC2)ccc1Nc1ccc2c(cnn2Cc2ccccc2)c1` [Example 29, 2-((1-benzyl-1H-indazol-5-yl)amino)-5-cyclopropylbenzoic acid] the inhibition in vivo at 1 % strength [1] was no less than 20%, the IC50 [2] was no more than 10 nM and the inhibition at 1 µM [3] was no less than 50%.

With `O=C(O)c1cc(C(F)(F)F)ccc1Nc1ccc2c(ccn2Cc2ccccc2)c1` [Example 32, 2-((1-benzyl-1H-indol-5-yl)amino)-5-(trifluoromethyl)benzoic acid] the inhibition in vivo at 1 % strength [1] was no less than 20%, the IC50 [2] was no more than 10 nM and the inhibition at 1 µM [3] was no less than 50%.

`O=C(O)c1cc(C2CC2)ccc1Nc1ccc2c(ccn2Cc2cccc(OCC(F)(F)F)c2)c1` [Example 35, 5-cyclopropyl-2-((1-(3-(2,2,2-trifluoroethoxyl)benzyl)-1H-indol-5-yl)amino)benzoic acid] gave an inhibition in vivo at 1 % strength [1] of no less than 20%, an IC50 [2] of no more than 10 nM and an inhibition at 1 µM [3] of no less than 50%.

Molecule `O=C(O)c1cc(C2CC2)cnc1Nc1ccc2c(ccn2Cc2ccccc2)c1` [Example 37, 2-((1-benzyl-1H-indol-5-yl)amino)-5-cyclopropylnicotinic acid] has an inhibition in vivo at 1 % strength [1] of no less than 20%, an IC50 [2] of no more than 10 nM and an inhibition at 1 µM [3] of no less than 50%.

`CC(C)(C)c1cc2cc(Nc3ccc(C4CC4)cc3C(=O)O)ccc2[nH]1` [Example 110, 2-((2-(tert-butyl)-1H-indol-5-yl)amino)-5-cyclopropylbenzoic acid] showed an IC50 [2] of 10 to 100 nM and an inhibition at 1 µM [3] of no less than 50%.

Work on `CC(C)n1ccc2cc(Nc3ccc(C4CC4)cc3C(=O)O)ccc21` [Example 112, 5-cyclopropyl-2-((1-isopropyl-1H-indol-5-yl)amino)benzoic acid] yielded an IC50 [2] of no more than 10 nM and an inhibition at 1 µM [3] of no less than 50%.

With `O=C(O)c1cc(C2CC2)ccc1Nc1ccc2c(ccn2Cc2ccc(N3CCCCC3)cc2)c1` [Example 194, 5-cyclopropyl-2-((1-(4-(piperidin-1-yl)benzyl)-1H-indol-5-yl)amino)benzoic acid] the IC50 [2] was no more than 10 nM and the inhibition at 1 µM [3] was no less than 50%.

In the case of `O=C(O)c1cc(C2CC2)ccc1Nc1ccc2c(ccn2Cc2ccc(N3CCOCC3)cc2)c1` [Example 196, 5-cyclopropyl-2-((1-(4-morpholinobenzyl)-1H-indol-5-yl)amino)benzoic acid], the IC50 [2] is reported as 10 to 100 nM and the inhibition at 1 µM [3] is reported as no less than 50%.

`CN(C)c1ccc(Cn2ccc3cc(Nc4ccc(C5CC5)cc4C(=O)O)ccc32)cc1` [Example 198, 5-cyclopropyl-2-((1-(4-(dimethylamino)benzyl)-1H-indol-5-yl)amino)benzoic acid] was tested, and the IC50 [2] was no more than 10 nM and the inhibition at 1 µM [3] was no less than 50%.

`O=C(O)c1cc(C2CC2)ccc1Nc1ccc2c(ccn2C(=O)c2ccccc2)c1` [Example 202, 2-((1-benzoyl-1H-indol-5-yl)amino)-5-cyclopropylbenzoic acid] showed an IC50 [2] of no more than 10 nM and an inhibition at 1 µM [3] of no less than 50%.

`CCCCn1ccc2cc(Nc3ccc(Cl)cc3C(=O)O)ccc21` [Example 255, 2-((1-butyl-1H-indol-5-yl)amino)-5-chlorobenzoic acid] gave an IC50 [2] of 10 to 100 nM and an inhibition at 1 µM [3] of no less than 50%.

Work on `O=C(O)c1cc(Cl)ccc1Nc1ccc2c(ccn2-c2ccccc2)c1` [Example 269, 5-chloro-2-((1-phenyl-1H-indol-5-yl)amino)benzoic acid] yielded an IC50 [2] of no more than 10 nM and an inhibition at 1 µM [3] of no less than 50%.

`O=C(O)c1cc(Cl)ccc1Nc1ccc2c(ccn2Cc2cccc(OC(F)F)c2)c1` [Example 277, 5-chloro-2-((1-(3-(difluoromethoxy)benzyl)-1H-indol-5-yl)amino)benzoic acid] gave an IC50 [2] of no more than 10 nM and an inhibition at 1 µM [3] of no less than 50%.

`O=C(O)c1cc(Cl)ccc1Nc1ccc2c(c1)CN(c1ccccc1)C2=O` [Example 281, 5-chloro-2-((1-oxo-2-phenylisoindolin-5-yl)amino)benzoic acid] was tested, and the IC50 [2] was 100 to 1000 nM and the inhibition at 1 µM [3] was no less than 50%.

`O=C(O)c1cc(Cl)ccc1Nc1ccc2c(c1)CCN2c1ccccc1` [Example 283, 5-chloro-2-((1-phenylindolin-5-yl)amino)benzoic acid] gave an IC50 [2] of no more than 10 nM and an inhibition at 1 µM [3] of no less than 50%.

`COCCOc1cccc(Cn2ccc3cc(Nc4ccc(Cl)cc4C(=O)O)ccc32)c1` [Example 298, 5-chloro-2-((1-(3-(2-methoxyethoxyl)benzyl)-1H-indol-5-yl)amino)benzoic acid] gave an IC50 [2] of no more than 10 nM and an inhibition at 1 µM [3] of no less than 50%.

`O=C(O)c1cc(Cl)ccc1Nc1ccc2c(ccn2Cc2cccc(OCCO)c2)c1` [Example 300, 5-chloro-2-((1-(3-(2-hydroxyethoxy)benzyl)-1H-indol-5-yl)amino)benzoic acid] was tested, and the IC50 [2] was 10 to 100 nM and the inhibition at 1 µM [3] was no less than 50%.

For `O=C(O)c1cc(Cl)ccc1Nc1ccc2c(ccn2-c2ccc(F)cc2)c1` [Example 331, 5-chloro-2-((1-(4-fluorophenyl)-1H-indol-5-yl)amino)benzoic acid], the IC50 [2] was no more than 10 nM and the inhibition at 1 µM [3] was no less than 50%.

`O=C(O)c1cc(Cl)ccc1Nc1ccc2c(ccn2-c2cccc(C(F)(F)F)c2)c1` [Example 333, 5-chloro-2-((1-(3-(trifluoromethyl)phenyl)-1H-indol-5-yl)amino)benzoic acid] was tested, and the IC50 [2] was no more than 10 nM and the inhibition at 1 µM [3] was no less than 50%.

With `O=C(O)c1cc(Cl)ccc1Nc1ccc2c(ccn2-c2ccccc2F)c1` [Example 335, 5-chloro-2-((1-(2-fluorophenyl)-1H-indol-5-yl)amino)benzoic acid] the IC50 [2] was no more than 10 nM and the inhibition at 1 µM [3] was no less than 50%.

`O=C(O)c1cc(Cl)ccc1Nc1ccc2c(ccn2-c2ccccc2C(F)(F)F)c1` [Example 337, 5-chloro-2-((1-(2-(trifluoromethyl)phenyl)-1H-indol-5-yl)amino)benzoic acid] was tested, and the IC50 [2] was no more than 10 nM and the inhibition at 1 µM [3] was no less than 50%.

`O=C(O)c1cc(C2CC2)ccc1Nc1ccc2c(ccn2-c2cccnc2)c1` [Example 339, 5-cyclopropyl-2-((1-(pyridin-3-yl)-1H-indol-5-yl)amino)benzoic acid] gave an IC50 [2] of no more than 10 nM and an inhibition at 1 µM [3] of no less than 50%.

For `O=C(O)c1cc(Cl)cnc1Nc1ccc2c(cnn2Cc2ccccc2)c1` [Example 354, 2-((1-benzyl-1H-indazol-5-yl)amino)-5-chloronicotinic acid], the IC50 [2] was 10 to 100 nM and the inhibition at 1 µM [3] was no less than 50%.

`O=C(O)c1cc(Cl)cnc1Nc1ccc2c(ccn2Cc2cccc(OCC(F)(F)F)c2)c1` [Example 357, 5-chloro-2-((1-(3-(2,2,2-trifluoroethoxyl)benzyl)-1H-indol-5-yl)amino)nicotinic acid] showed an IC50 [2] of 10 to 100 nM and an inhibition at 1 µM [3] of no less than 50%.

With `O=C(O)c1cc(Cl)cnc1Nc1ccc2c(ccn2Cc2cccc(OC(F)(F)F)c2)c1` [Example 361, 5-chloro-2-((1-(3-(trifluoromethoxy)benzyl)-1H-indol-5-yl)amino)nicotinic acid] the IC50 [2] was 10 to 100 nM and the inhibition at 1 µM [3] was no less than 50%.

Work on `O=C(O)c1cc(Cl)ccc1Nc1ccc2c(ccn2Cc2cccc(OC(F)(F)F)c2)c1` [Example 363, 5-chloro-2-((1-(3-(trifluoromethoxy)benzyl)-1H-indol-5-yl)amino)benzoic acid] yielded an IC50 [2] of no more than 10 nM and an inhibition at 1 µM [3] of no less than 50%.

Molecule `COc1ccc(-n2ccc3cc(Nc4ccc(C5CC5)cc4C(=O)O)ccc32)cc1` [Example 373, 5-cyclopropyl-2-((1-(4-methoxyphenyl)-1H-indol-5-yl)amino)benzoic acid] has an IC50 [2] of no more than 10 nM and an inhibition at 1 µM [3] of no less than 50%.

`O=C(O)c1cc(C2CC2)ccc1Nc1ccc2c(ccn2-c2ccc(C(F)(F)F)cc2)c1` [Example 375, 5-cyclopropyl-2-((1-(4-(trifluoromethyl)phenyl)-1H-indol-5-yl)amino)benzoic acid] showed an IC50 [2] of no more than 10 nM and an inhibition at 1 µM [3] of no less than 50%.

Reference: patent US9624215B2, “Amine derivative or salt thereof” (TOYAMA CHEMICAL CO., LTD., priority 2012, dated 2017)
